The values that follow come from patent publication US10562909B2, “Fused quadracyclic compounds, compositions and uses thereof” (Tabomedex Biosciences, LLC, priority 2016, dated 2020).

Each structure is given as a SMILES string.

Chain of MAPKAPK2 (P49137 whole entry, species assumed): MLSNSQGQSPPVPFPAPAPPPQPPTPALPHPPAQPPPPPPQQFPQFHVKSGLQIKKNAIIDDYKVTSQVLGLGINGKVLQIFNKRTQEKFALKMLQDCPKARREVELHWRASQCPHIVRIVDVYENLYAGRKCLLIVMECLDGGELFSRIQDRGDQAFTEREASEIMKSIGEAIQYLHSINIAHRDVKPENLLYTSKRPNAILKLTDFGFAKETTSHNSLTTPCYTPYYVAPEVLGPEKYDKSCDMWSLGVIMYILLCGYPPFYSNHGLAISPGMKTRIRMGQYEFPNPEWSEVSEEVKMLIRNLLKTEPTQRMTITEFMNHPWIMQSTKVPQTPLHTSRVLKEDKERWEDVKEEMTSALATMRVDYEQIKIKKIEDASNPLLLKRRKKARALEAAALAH

This experiment concerns the target MAPKAPK2 (Homo sapiens, UniProt P49137). Put plainly: MK2 Enzymatic Assay. It counts as biochemical. Particulars: 0.5 nM MAPKAPK2, 3 μM ATP, 2 μM Ser/Thr4 peptide, 23° C., values given as concentration bins. The method in brief:
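Percent phosphorylation was derived from coumarin and fluorescein emissions relative to 0% and 100% phospho-peptide controls, read after a 120 min development step. Reactions used 2× stocks of 1 nM kinase, 4 μM peptide and 6 μM ATP; enzyme and peptide sat 20 min before a 120 min ATP reaction.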
What is called IC50 is the concentration at which inhibition is half-maximal. The low end stands for inhibition by little substance, the high end for a need for much substance. For the compound `CNC[C@@H]1CN(c2ccc3c(c2)Cn2cc(-c4ccc(F)cc4)cc2-c2nccn2-3)C[C@H]1O` [Compound 364, (3S,4R)-1-(12-(4-fluorophenyl)-9H-benzo[e]imidazo[2,1-c]pyrrolo[1,2-a][1,4]diazepin-7-yl)-4-((methylamino)methyl)pyrrolidin-3-ol], the half-maximal inhibitory concentration (IC50) was under 50 nM.

`CN(C)[C@H]1CN(c2ccc3c(c2)Cn2cc(-c4ccc(C#N)cc4)cc2-c2nccn2-3)C[C@H]1O` [Compound 133, 4-(7-((3S,4R)-3-(dimethylamino)-4-hydroxypyrrolidin-1-yl)-9H-benzo[e]imidazo[2,1-c]pyrrolo[1,2-a][1,4]diazepin-12-yl)benzonitrile] came in with an IC50 of under 50 nM.

Regarding `CN[C@H]1CCN(c2ccc3c(c2)Cn2c(cc(-c4ccc(C#N)cc4)c2Cl)-c2nncn2-3)C1` [Compound 167, (S)-4-(11-chloro-7-(3-(methylamino)pyrrolidin-1-yl)-9H-benzo[e]pyrrolo[1,2-a][1,2,4]tri-azolo[3,4-c][1,4]diazepin-12-yl)benzonitrile], the concentration for half-maximal inhibition (IC50) is 50 to 100 nM.

Compound `NC[C@H]1CCN(c2ccc3c(c2)Cn2cc(-c4ccc(F)cc4)cc2-c2ncnn2-3)C1` [Compound 496, (R)-(1-(12-(4-fluorophenyl)-9H-benzo[e]pyrrolo[1,2-a][1,2,4]triazolo[5,1-c][1,4]diazepin-7-yl)pyrrolidin-3-yl)methanamine] displayed an IC50 of 50 to 100 nM.

In turn, `Fc1ccc(-c2cc3n(c2)Cc2cc(N4CC5(CCNC5)C4)ccc2-n2nnnc2-3)cc1` [Compound 403, 12-(4-fluorophenyl)-7-(2,6-diazaspiro[3.4]octan-2-yl)-9H-benzo[e]pyrrolo[1,2-a]tetrazolo[5,1-c][1,4]diazepine] had an IC50 of 50 to 100 nM.

As to `CN1CC2(CCN(c3ccc4c(c3)Cn3cc(-c5ccc(F)cc5)cc3-c3nnnn3-4)C2)C1` [Compound 392, 12-(4-fluorophenyl)-7-(2-methyl-2,6-diazaspiro[3.4]octan-6-yl)-9H-benzo[e]pyrrolo[1,2-a] tetrazolo[5,1-c][1,4]diazepine], the IC50 is under 50 nM.

In turn, `CNCC1CN(c2ccc3c(c2)Cn2cc(-c4ccc(F)cc4)cc2-c2nnnn2-3)C1` [Compound 386, 1-(1-(12-(4-fluorophenyl)-9H-benzo[e]pyrrolo[1,2-a]tetrazolo[5,1-c][1,4]diazepin-7-yl)azetidin-3-yl)-N-methylmethanamine] displayed an IC50 of under 50 nM.

With `CN(C)C[C@@H]1CCN(c2ccc3c(c2)Cn2cc(-c4ccc(C#N)cc4)cc2-c2ncnn2-3)C1` [Compound 254, (S)-4-(7-(3-((dimethylamino)methyl)pyrrolidin-1-yl)-9H-benzo[e]pyrrolo[1,2-a][1,2,4]triazolo[5,1-c][1,4]diazepin-12-yl)benzonitrile], the concentration for half-maximal inhibition (IC50) lay in the range of 50 to 100 nM.

`CN(C)C[C@@H]1CN(c2ccc3c(c2)Cn2cc(-c4ccc(F)cc4)cc2-c2cnnn2-3)C[C@H]1O` [Compound 511, (3S,4R)-4-((dimethylamino)methyl)-1-(5-(4-fluorophenyl)-8H-benzo[e]pyrrolo[1,2-a][1,2,3]triazolo[5,1-c][1,4]diazepin-10-yl)pyrrolidin-3-ol] registered an IC50 of under 50 nM.

The compound `CC(C)(CO)NC[C@@H]1CCN(c2ccc3c(c2)Cn2cc(-c4ccc(F)cc4)cc2-c2ncnn2-3)C1` [Compound 425, (S)-2-(((1-(12-(4-fluorophenyl)-9H-benzo[e]pyrrolo[1,2-a][1,2,4]triazolo[5,1-c][1,4]diazepin-7-yl)pyrrolidin-3-yl)methyl)amino)-2-methylpropan-1-ol] yielded a half-inhibitory concentration (IC50) of 50 to 100 nM.

The compound `CN(C)C[C@H]1CN(c2ccc3c(n2)Cn2cc(-c4ccc(C#N)cc4)cc2-c2nccn2-3)C[C@@H]1O` [Compound 306, 4-(7-((3S,4R)-3-((dimethylamino)methyl)-4-hydroxypyrrolidin-1-yl)-9H-imidazo[2,1-c]pyrido[3,2-e]pyrrolo[1,2-a][1,4]diazepin-12-yl)benzonitrile] displayed a concentration for half-maximal inhibition (IC50) of under 50 nM.

`CCN1CC2(CCN(c3ccc4c(c3)Cn3cc(-c5ccc(F)cc5)cc3-c3nccn3-4)C2)C1` [Compound 367, 7-(2-ethyl-2,6-diazaspiro[3.4]octan-6-yl)-12-(4-fluorophenyl)-9H-benzo[e]imidazo[2,1-c] pyrrolo[1,2-a][1,4]diazepine] yielded a half-inhibitory concentration (IC50) of under 50 nM.

`N#Cc1ccc(-c2cc3n(c2)Cc2cc(N4CC[C@H]5NCC[C@@H]54)ncc2-n2cnnc2-3)cc1` (racemic) [Compound 314, 4-(7-(trans-hexahydropyrrolo[3,2-b]pyrrol-1(2H)-yl)-9H-pyrido[3,4-e]pyrrolo[1,2-a][1,2,4]triazolo[3,4-c][1,4]diazepin-12-yl)benzonitrile]: the 50% inhibitory concentration (IC50) was under 50 nM.

`CN1CC2(CCN(c3ccc4c(c3)Cn3cc(-c5ccc(C#N)cc5)cc3-c3ncnn3-4)C2)C1` [Compound 253, 4-(7-(2-methyl-2,6-diazaspiro[3.4]octan-6-yl)-9H-benzo[e]pyrrolo[1,2-a][1,2,4]triazolo[5,1-c][1,4]diazepin-12-yl)benzonitrile]: the half-maximal inhibitory concentration (IC50) is under 50 nM.

Compound `NCC[C@H]1CN(c2ccc3c(c2)Cn2cc(-c4ccc(F)cc4)cc2-c2nccn2-3)C[C@@H]1O` (relative stereo) [Compound 492, Trans-4-(2-aminoethyl)-1-(12-(4-fluorophenyl)-9H-benzo[e]imidazo[2,1-c]pyrrolo[1,2-a][1,4]diazepin-7-yl)pyrrolidin-3-ol] returned a 50% inhibitory concentration (IC50) of under 50 nM.

`C[C@@H]1CN(c2ccc3c(c2)Cn2cc(-c4ccc(F)cc4)cc2-c2nnnn2-3)C[C@H](C)N1` [Compound 395, 7-(cis-3,5-dimethylpiperazin-1-yl)-12-(4-fluorophenyl)-9H-benzo[e]pyrrolo[1,2-a]tetrazolo[5,1-c][1,4]diazepine] registered a 50% inhibitory concentration (IC50) of under 50 nM.

Consider `CN(C)C[C@H]1CN(c2ccc3c(c2)Cn2cc(-c4ccc(F)cc4)cc2-c2nccn2-3)C[C@@H]1O` [Compound 356, (3R,4S)-4-((dimethylamino)methyl)-1-(12-(4-fluorophenyl)-9H-benzo[e]imidazo[2,1-c]pyrrolo[1,2-a][1,4]diazepin-7-yl)pyrrolidin-3-ol], for which the half-inhibitory concentration (IC50) was under 50 nM.

For the compound `CN(C)[C@H]1CCN(c2ccc3c(c2)Cn2cc(-c4ccc(F)cc4F)cc2-c2nncn2-3)C1` [Compound 449, (S)-1-(12-(2,4-difluorophenyl)-9H-benzo[e]pyrrolo[1,2-a][1,2,4]triazolo[3,4-c][1,4]diazepin-7-yl)-N,N-dimethylpyrrolidin-3-amine], the 50% inhibitory concentration (IC50) lay in the range of 100 to 200 nM.

As to `CC(C)[C@@H](CO)NC[C@H]1CCN(c2ccc3c(c2)Cn2cc(-c4ccc(F)cc4)cc2-c2nccn2-3)C1` [Compound 359, (S)-2-((((R)-1-(12-(4-fluorophenyl)-9H-benzo[e]imidazo[2,1-c]pyrrolo[1,2-a][1,4]diazepin-7-yl)pyrrolidin-3-yl)methyl)amino)-3-methylbutan-1-ol], the concentration for half-maximal inhibition (IC50) was under 50 nM.

In turn, `OC1CN(c2ccc3c(c2)Cn2cc(-c4ccc(F)cc4)cc2-c2nccn2-3)CC1CN1CCC1` (single isomer, unassigned) [Compound 468] showed a half-inhibitory concentration (IC50) of under 50 nM.

As to `CNCC1CN(c2ccc3c(n2)Cn2cc(-c4ccc(C#N)cc4)cc2-c2nccn2-3)C1` [Compound 295, 4-(7-(3-((methylamino)methyl)azetidin-1-yl)-9H-imidazo[2,1-c]pyrido[3,2-e]pyrrolo[1,2-a] [1,4]diazepin-12-yl)benzonitrile], the IC50 is under 50 nM.

In turn, `O[C@@H]1CN(c2ccc3c(c2)Cn2cc(-c4ccc(F)cc4)cc2-c2nccn2-3)C[C@H]1CN1CCCC1` (relative stereo) [Compound 472, (Trans)-1-(12-(4-fluorophenyl)-9H-benzo[e]imidazo[2,1-c]pyrrolo[1,2-a][1,4]diazepin-7-yl)-4-(pyrrolidin-1-ylmethyl)pyrrolidin-3-ol] yielded an IC50 of under 50 nM.

The compound `Fc1ccc(-c2cc3n(c2)Cc2cc(N4CC5(CCCNC5)C4)ccc2-n2ccnc2-3)cc1` [Compound 377, 12-(4-fluorophenyl)-7-(2,6-diazaspiro[3.5]nonan-2-yl)-9H-benzo[e]imidazo[2,1-c]pyrrolo[1,2-a][1,4]diazepine] had an IC50 of under 50 nM.

In turn, `CN(C)[C@@H]1CN(c2ccc3c(n2)Cn2cc(-c4ccc(F)cc4)cc2-c2nccn2-3)C[C@H]1O` [Compound 431, (3R,4R)-4-(dimethylamino)-1-(12-(4-fluorophenyl)-9H-imidazo[2,1-c]pyrido[3,2-e]pyrrolo[1,2-a][1,4]diazepin-7-yl)pyrrolidin-3-ol] displayed a half-inhibitory concentration (IC50) of under 50 nM.

`NC[C@@H]1CN(c2ccc3c(c2)Cn2cc(-c4ccc(F)cc4)cc2-c2nccn2-3)C[C@H]1O` [Compound 366, (3S,4R)-4-(aminomethyl)-1-(12-(4-fluorophenyl)-9H-benzo[e]imidazo[2,1-c]pyrrolo[1,2-a] [1,4]diazepin-7-yl)pyrrolidin-3-ol] gave a half-inhibitory concentration (IC50) of under 50 nM.

Compound `c1ccc(-c2cc3n(c2)Cc2cc(N4CCC5(CNC5)C4)ccc2-n2ccnc2-3)cc1` [Compound 462, 12-phenyl-7-(2,6-diazaspiro[3.4]octan-6-yl)-9H-benzo[e]imidazo[2,1-c]pyrrolo[1,2-a][1,4]diazepine] came in with an IC50 of under 50 nM.

As for `N#Cc1ccc(-c2cc3n(c2)Cc2nc(N4CC[C@@H](CN5CCC(O)CC5)C4)ccc2-n2ccnc2-3)cc1` [Compound 308, (S)-4-(7-(3-((4-hydroxypiperidin-1-yl)methyl)pyrrolidin-1-yl)-9H-imidazo[2,1-c]pyrido[3,2-e]pyrrolo[1,2-a][1,4]diazepin-12-yl)benzonitrile], the IC50 was under 50 nM.

In turn, `CN(C)C[C@@H]1CN(c2ccc3c(c2)Cn2cc(-c4ccc(F)cc4)cc2-c2nccn2-3)C[C@H]1O` [Compound 357, (3S,4R)-4-((dimethylamino)methyl)-1-(12-(4-fluorophenyl)-9H-benzo[e]imidazo[2,1-c]pyrrolo[1,2-a][1,4]diazepin-7-yl)pyrrolidin-3-ol] gave an IC50 of under 50 nM.
